Assay results as given in patent US6969702B2, “Compounds and methods for increasing neurogenesis” (priority 2002, dated 2005).
Where two headings read alike, the source gives them in different places. Marks after values point to notes of the source that are not given here. Square brackets hold non-standard residues; d marks the D form. Ends that are not written are not given here. Peptide text beside a SMILES is read from it. pGlu = O=C1CC[C@@H](C(=O)O)N1

Experiments:
[1] = system: cAMP activation in mouse adult neural stem cells; assay: cAMP detection (HitHunter EFC Cyclic AMP Chemiluminescence Assay)
[2] = system: Adult neural stem cells; assay: Flow cytometry for early neuronal marker Doublecortin
[3] = system: mouse adult neural stem cells; assay: ATP-assay: proliferation (ATP levels) of neurosphere-derived cells
[4] = system: cAMP activation in mouse adult neural stem cells
[5] = system: mouse adult neural stem cells; conditions: 0.1 µM
[6] = system: Adult neural stem cells; conditions: 0.1 µM
[7] = system: CREB phosphorylation in human adult neural stem cells; format: cell-based; conditions: 100 nM
[8] = system: CREB phosphorylation in mouse adult neural stem cells; format: cell-based; conditions: 100 nM
[9] = system: NFAT-Luciferace reporter (Ca^2+)
[10] = Table 2, 100 nM (cAMP concentration)
[11] = Table 4, 10 nM, 24 hours after induction

Question: What does the source list for `CC[C@H](C)[C@H](NC(=O)[C@H](Cc1ccccc1)NC(=O)[C@H](C)NC(=O)[C@H](CC(=O)O)NC(=O)[C@H](CCCCN)NC(=O)[C@H](CO)NC(=O)[C@@H]1CCCN1C(=O)[C@@H]1CCC(=O)N1)C(=O)NCC(=O)N[C@@H](CC(C)C)C(=O)N[C@@H](CCSC)C(N)=O` [Eledoisin] ([pGlu]PSKDAFIGLM-NH2)?
Answer: cAMP (pmol/well) ([1]; Table 2, 1 nM (cAMP concentration)): 1.0 ± 0.06 pmol/well; % Doublecortin-positive cells ([2]; Table 6, 100 nM, 4 days): 4.3%; ATP (nM ATP/well) ([3]; Table 2, 100 nM, 4 days): 10.4 ± 1.1 nM ATP/well; Fold Induction cAMP ([4]; mouse, 0.001 µM): 1.2* (1 nM) fold; Fold Induction ATP ([5]; mouse): 1.2* fold; Fold Induction (Doublecortin-positive cells) ([6]; mouse): 1.7 fold

Question: `CC[C@H](C)[C@H](NC(=O)[C@H](CCC(N)=O)NC(=O)[C@H](Cc1c[nH]cn1)NC(=O)[C@H](C)NC(=O)[C@H](CC(C)C)NC(=O)[C@H](CCCCN)NC(=O)[C@H](CCC(N)=O)NC(=O)[C@@H](NC(=O)[C@@H](N)[C@@H](C)O)C(C)C)C(=O)N[C@@H](Cc1ccc(O)cc1)C(=O)N[C@@H](CCC(N)=O)C(=O)N[C@@H](Cc1ccccc1)C(=O)N[C@H](C(=O)N[C@@H](CC(=O)O)C(=O)N[C@@H](CCCCN)C(=O)N[C@@H](CC(=O)O)C(=O)N[C@@H](CCCCN)C(=O)N[C@@H](CC(=O)O)C(=O)N[C@@H](CC(N)=O)C(=O)N[C@H](C(=O)N[C@@H](C)C(=O)N1CCC[C@H]1C(=O)N[C@@H](CCCNC(=N)N)C(=O)N[C@@H](CO)C(=O)N[C@@H](CCCCN)C(=O)N[C@H](C(=O)N[C@@H](CO)C(=O)N1CCC[C@H]1C(=O)N[C@@H](CCC(N)=O)C(=O)NCC(=O)N[C@@H](Cc1ccc(O)cc1)C(N)=O)[C@@H](C)CC)C(C)C)[C@@H](C)O` [Adrenomedullin (22-52)] was tested. Which “cAMP (pmol/well)” value [1, 10] did it give?
Answer: 0.34 ± 0.07 pmol/well

Question: What about the “% Doublecortin-positive cells” value [2] of the same molecule?
Answer: 2.0%

Question: What about the “ATP (nM ATP/well)” value ([3]; Table 2, 100 nM, 4 days) of the same molecule?
Answer: 12.3 ± 1.1 nM ATP/well

Question: And the “Fold Induction cAMP” value ([4]; 0.1 µM)?
Answer: 1.6* fold

Question: What about the “Fold Induction ATP” value [5] of the same molecule?
Answer: 1.6** fold

Question: And the “Fold Induction (Doublecortin-positive cells)” value [6]?
Answer: 0.8 fold

Question: Which results are given for “PACAP: pituitary adengate cyclase activating peptide, cAMP activator (HSDGIFTDSYSRYRKQMAVKKYLAAVLGKRYKQRVKNK; ends and bridges not checked; UniProt P18509 132-169, looked up)”?
Answer: CREB phosphorylation ([7]; human adult neural stem cells, time course 15 minutes to 8 hours): up-regulation of CREB phosphorylation; CREB phosphorylation ([8]; mouse adult neural stem cells, time course 15 minutes to 8 hours): up-regulation of CREB phosphorylation

Question: Which CREB phosphorylation [7] does the source give for cholera toxin here?
Answer: up-regulation of CREB phosphorylation

Question: And the “cAMP (pmol/well)” value [1]?
Answer: 0.07 ± 0.01 pmol/well

Question: And the “Fold Induction cAMP” value ([1]; 10 nM)?
Answer: 3.1*** fold

Question: What about the CREB phosphorylation [8] of the same molecule?
Answer: up-regulation of CREB phosphorylation

Question: And the “Fold Induction NFAT” value ([9]; 100 nM)?
Answer: 1.4** fold

Question: What about the “NFAT Luciferace units” value ([9]; 100 nM) of the same molecule?
Answer: 11.6 ± 1.0 Luciferace units

Question: And the “Fold Induction (Doublecortin-positive cells)” value ([2]; 100 nM)?
Answer: 2.6 fold

Question: And the “% Doublecortin-positive cells” value ([2]; 100 nM, 4 days)?
Answer: 6.7%

Question: And the “proliferation of neural stem cells” value [3]?
Answer: increase

Question: What about the “ATP (nM ATP/well)” value ([3]; 100 nM) of the same molecule?
Answer: 12.9 ± 1.6 nM ATP/well

Question: What about the “Fold Induction ATP” value ([3]; 100 nM) of the same molecule?
Answer: 1.4* fold

Question: And the “Fold Induction ATP” value ([3]; 100 nM, 4 days)?
Answer: 1.4* fold

Question: `CC[C@H](C)[C@H](NC(=O)[C@H](CCC(N)=O)NC(=O)[C@H](Cc1c[nH]cn1)NC(=O)[C@H](C)NC(=O)[C@H](CC(C)C)NC(=O)[C@H](CCCCN)NC(=O)[C@H](CCC(N)=O)NC(=O)[C@@H](NC(=O)[C@@H](NC(=O)[C@@H]1CSSC[C@H](NC(=O)CNC(=O)[C@H](Cc2ccccc2)NC(=O)[C@H](CO)NC(=O)[C@H](CCCNC(=N)N)NC(=O)[C@H](CC(C)C)NC(=O)CNC(=O)[C@H](CCC(N)=O)NC(=O)[C@H](Cc2ccccc2)NC(=O)[C@H](CC(N)=O)NC(=O)[C@H](CC(N)=O)NC(=O)[C@H](CCSC)NC(=O)[C@H](CO)NC(=O)[C@H](CCC(N)=O)NC(=O)[C@H](CCCNC(=N)N)NC(=O)[C@@H](N)Cc2ccc(O)cc2)C(=O)N[C@@H](CCCNC(=N)N)C(=O)N[C@@H](Cc2ccccc2)C(=O)NCC(=O)N[C@@H]([C@@H](C)O)C(=O)N1)[C@@H](C)O)C(C)C)C(=O)N[C@@H](Cc1ccc(O)cc1)C(=O)N[C@@H](CCC(N)=O)C(=O)N[C@@H](Cc1ccccc1)C(=O)N[C@H](C(=O)N[C@@H](CC(=O)O)C(=O)N[C@@H](CCCCN)C(=O)N[C@@H](CC(=O)O)C(=O)N[C@@H](CCCCN)C(=O)N[C@@H](CC(=O)O)C(=O)N[C@@H](CC(N)=O)C(=O)N[C@H](C(=O)N[C@@H](C)C(=O)N1CCC[C@H]1C(=O)N[C@@H](CCCNC(=N)N)C(=O)N[C@@H](CO)C(=O)N[C@@H](CCCCN)C(=O)N[C@H](C(=O)N[C@@H](CO)C(=O)N1CCC[C@H]1C(=O)N[C@@H](CCC(N)=O)C(=O)NCC(=O)N[C@@H](Cc1ccc(O)cc1)C(N)=O)[C@@H](C)CC)C(C)C)[C@@H](C)O` [Adrenomedullin (human)] was tested. Which “cAMP (pmol/well)” value [1, 10] did it give?
Answer: 0.15 ± 0.3 pmol/well

Question: And the “Fold Induction NFAT” value ([9]; 0.1 µM)?
Answer: 2.2** fold

Question: And the “NFAT Luciferace units” value ([9]; Table 4, 100 nM, 24 hours after induction)?
Answer: 12.4 ± 0.9 Luciferace units

Question: And the “% Doublecortin-positive cells” value ([2]; Table 6, 100 nM, 4 days)?
Answer: 4.2%

Question: And the “ATP (nM ATP/well)” value ([3]; Table 2, 100 nM, 4 days)?
Answer: 11.6 ± 0.8 nM ATP/well

Question: And the “ATP (nM ATP/well)” value ([3]; Table 4, 100 nM)?
Answer: 11.6 ± 0.8 nM ATP/well

Question: What about the “Fold Induction cAMP” value ([4]; 0.1 µM) of the same molecule?
Answer: 2.5** fold

Question: And the “Fold Induction ATP” value [5]?
Answer: 1.1* fold

Question: What about the “Fold Induction (Doublecortin-positive cells)” value [6] of the same molecule?
Answer: 1.6 fold

Question: What does the source list for `CC[C@H](C)[C@H](NC(=O)CNC(=O)[C@H](CC(=O)O)NC(=O)[C@H](CO)NC(=O)[C@@H](N)Cc1cnc[nH]1)C(=O)N[C@@H](Cc1ccccc1)C(=O)N[C@H](C(=O)N[C@@H](CC(=O)O)C(=O)N[C@@H](CO)C(=O)N[C@@H](Cc1ccc(O)cc1)C(=O)N[C@@H](CO)C(=O)N[C@@H](CCCNC(=N)N)C(=O)N[C@@H](Cc1ccc(O)cc1)C(=O)N[C@@H](CCCNC(=N)N)C(=O)N[C@@H](CCCCN)C(=O)N[C@@H](CCC(N)=O)C(=O)N[C@@H](CCSC)C(=O)N[C@@H](C)C(=O)N[C@H](C(=O)N[C@@H](CCCCN)C(=O)N[C@@H](CCCCN)C(=O)N[C@@H](Cc1ccc(O)cc1)C(=O)N[C@@H](CC(C)C)C(=O)N[C@@H](C)C(=O)N[C@@H](C)C(=O)N[C@H](C(=O)N[C@@H](CC(C)C)C(=O)NCC(=O)N[C@@H](CCCCN)C(=O)N[C@@H](CCCNC(=N)N)C(=O)N[C@@H](Cc1ccc(O)cc1)C(=O)N[C@@H](CCCCN)C(=O)N[C@@H](CCC(N)=O)C(=O)N[C@@H](CCCNC(=N)N)C(=O)N[C@H](C(=O)N[C@@H](CCCCN)C(=O)N[C@@H](CC(N)=O)C(=O)N[C@@H](CCCCN)C(N)=O)C(C)C)C(C)C)C(C)C)[C@@H](C)O` [PACAP-38]?
Answer: cAMP (pmol/well) [1, 10]: 0.13 ± 0.03 pmol/well; Fold Induction cAMP ([1]; Table 2, 100 nM, vs vehicle): 4.2** fold; NFAT Luciferace units [9, 11]: 6.2 ± 1.6 Luciferace units; Fold Induction NFAT ([9]; Table 4, 10 nM, vs vehicle): 1.7* fold; % Doublecortin-positive cells ([2]; Table 6, 100 nM, 4 days): 5.2%; Fold Induction (Doublecortin-positive cells) ([2]; Table 6, 100 nM, vs EGF/FGF): 2.0 fold; ATP (nM ATP/well) ([3]; Table 2, 100 nM, 4 days): 26.9 ± 3.7 nM ATP/well; Fold Induction ATP ([3]; Table 2, 100 nM, 4 days, vs vehicle): 2.9** fold; ATP (nM ATP/well) ([3]; Table 4, 10 nM): 22.0 ± 0.9 nM ATP/well; Fold Induction ATP ([3]; Table 4, 10 nM, vs vehicle): 2.3*** fold

Question: `CC[C@H](C)[C@H](NC(=O)[C@H](CC(=O)O)NC(=O)[C@H](CC(C)C)NC(=O)[C@H](Cc1cnc[nH]1)NC(=O)[C@@H]1CSSC[C@H](N)C(=O)N[C@@H](CO)C(=O)N[C@H]2CSSC[C@H](NC(=O)[C@H](CCC(=O)O)NC(=O)[C@H](CCCCN)NC(=O)[C@H](CC(=O)O)NC(=O)[C@H](CCSC)NC(=O)[C@H](CC(C)C)NC(=O)[C@H](CO)NC(=O)[C@H](CO)NC2=O)C(=O)N[C@@H](C(C)C)C(=O)N[C@@H](Cc2ccc(O)cc2)C(=O)N[C@@H](Cc2ccccc2)C(=O)N1)C(=O)N[C@H](C(=O)N[C@@H](Cc1c[nH]c2ccccc12)C(=O)O)[C@@H](C)CC` [Endothelin-1 (human, porcine)] was tested. Which “cAMP (pmol/well)” value ([1]; Table 2, 10 nM (cAMP concentration)) did it give?
Answer: 3.64 ± 1.13 pmol/well

Question: What about the “Fold Induction cAMP” value ([1]; Table 2, 10 nM, vs vehicle) of the same molecule?
Answer: 2.0* fold

Question: And the “NFAT Luciferace units” value [9, 11]?
Answer: 13.3 ± 1.3 Luciferace units

Question: What about the “Fold Induction NFAT” value ([9]; Table 4, 10 nM, vs vehicle) of the same molecule?
Answer: 1.6** fold

Question: What about the “% Doublecortin-positive cells” value ([2]; Table 6, 10 nM, 4 days) of the same molecule?
Answer: 5.0%

Question: And the “Fold Induction (Doublecortin-positive cells)” value ([2]; Table 6, 10 nM, vs EGF/FGF)?
Answer: 2.0 fold

Question: What about the “ATP (nM ATP/well)” value ([3]; Table 2, 10 nM, 4 days) of the same molecule?
Answer: 41.7 ± 7.2 nM ATP/well

Question: And the “Fold Induction ATP” value ([3]; Table 2, 10 nM, 4 days, vs vehicle)?
Answer: 2.5* fold

Question: What about the “ATP (nM ATP/well)” value ([3]; Table 4; 10 nM; Porcine,)) of the same molecule?
Answer: 35.3 ± 3.7 nM ATP/well

Question: And the “Fold Induction ATP” value ([3]; Table 4; 10 nM; vs vehicle; Porcine,), 0.01 µM)?
Answer: 1.3* fold
